Laboratory results taken from patent US20110053995A1, “BENZENESULFONANILIDE COMPOUND INHIBITORS OF UREA TRANSPORTERS” (THE REGENTS OF THE UNIVERSITY OF CALIFORNIA, priority 2006, published 2011).
Read-outs that look alike come from different tables or passages of the source.

Experiments:
UT-B = target: T1, UT-B (Homo sapiens, UniProt Q13336); assay: RBC lysis assay, human RBCs; type: cell-based
T1 construct: a red blood cell (i.e., erythrocyte), which endogenously expresses the urea transporter UT-B; endogenous in cells; host or cells: human red blood cells (whole venous blood, single donor)
T1 sequence (Q13336 1-389): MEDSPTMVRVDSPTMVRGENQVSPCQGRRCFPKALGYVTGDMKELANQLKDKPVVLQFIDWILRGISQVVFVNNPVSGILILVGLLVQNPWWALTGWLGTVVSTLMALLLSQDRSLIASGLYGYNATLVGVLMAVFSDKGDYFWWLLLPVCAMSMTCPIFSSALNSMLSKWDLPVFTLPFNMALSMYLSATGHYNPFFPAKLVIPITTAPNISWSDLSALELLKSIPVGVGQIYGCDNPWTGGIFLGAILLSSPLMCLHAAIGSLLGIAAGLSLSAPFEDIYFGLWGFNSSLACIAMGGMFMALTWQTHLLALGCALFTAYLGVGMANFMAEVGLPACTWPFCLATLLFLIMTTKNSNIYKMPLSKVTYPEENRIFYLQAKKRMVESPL
Excerpt: Vigorous mixing was achieved by repeated pipetting.

rat UT-A1 = target: T2, rat UT-A1 (Rattus norvegicus, UniProt Q62668); assay: UT-A1-facilitated urea flux across MDCK-UT-A1 cell layers; type: cell-based; settings: for inhibition of rat UT-A1: 25 μM
T2 construct: expressed in transfected cells; host or cells: MDCK cells (gift of Dr. Jeffrey Sands, Emory University)
T2 sequence (Q62668 1-929): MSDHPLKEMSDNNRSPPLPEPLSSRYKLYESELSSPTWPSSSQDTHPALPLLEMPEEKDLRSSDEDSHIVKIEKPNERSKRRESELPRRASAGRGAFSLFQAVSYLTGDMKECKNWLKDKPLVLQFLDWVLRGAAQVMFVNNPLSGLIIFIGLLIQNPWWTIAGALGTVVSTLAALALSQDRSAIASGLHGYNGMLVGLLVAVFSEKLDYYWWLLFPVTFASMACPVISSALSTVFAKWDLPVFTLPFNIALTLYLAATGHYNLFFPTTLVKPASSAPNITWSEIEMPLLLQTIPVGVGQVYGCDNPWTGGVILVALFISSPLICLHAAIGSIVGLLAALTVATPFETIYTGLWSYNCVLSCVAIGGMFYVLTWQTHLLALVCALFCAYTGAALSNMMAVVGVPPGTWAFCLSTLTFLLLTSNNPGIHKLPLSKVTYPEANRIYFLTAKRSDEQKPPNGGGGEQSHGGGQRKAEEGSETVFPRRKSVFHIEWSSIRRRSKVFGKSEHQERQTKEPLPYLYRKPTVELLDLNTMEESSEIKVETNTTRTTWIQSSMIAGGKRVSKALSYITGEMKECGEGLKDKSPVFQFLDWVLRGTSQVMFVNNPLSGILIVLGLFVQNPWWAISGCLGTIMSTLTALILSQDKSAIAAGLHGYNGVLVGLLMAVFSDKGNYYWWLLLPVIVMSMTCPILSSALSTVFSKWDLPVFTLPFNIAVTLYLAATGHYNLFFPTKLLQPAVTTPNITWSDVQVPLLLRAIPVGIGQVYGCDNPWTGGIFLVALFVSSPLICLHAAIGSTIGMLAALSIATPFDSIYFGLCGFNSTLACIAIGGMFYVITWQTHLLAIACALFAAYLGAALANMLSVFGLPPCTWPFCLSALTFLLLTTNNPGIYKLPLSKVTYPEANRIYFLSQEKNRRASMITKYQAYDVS
Description: Concentration-inhibition studies were performed to study the effect of the active mouse UT-B inhibitors on urea transport by UT-A. The amino acid sequences of UT-B and UT-A urea transporter isoforms share significant similarity. The cells used in these studies were MDCK cells that expressed rat UT-A1. MDCK-UT-A1-expressing cells were grown on collagen-coated porous filters until they were electrically tight, at which point 15 mM urea was introduced into buffer bathing the basolateral cell surface.
MDCK cells stably transfected with rat UT-A1 (MDCK-UT-A1) (Fröhlich et al., Am J Physiol. in press; Fröhlich et al., Am. J. Physiol. Cell Physiol. 286:C1264-70 (2004). Epub on Jan. 28, 2004) were generously provided by Dr. Jeffrey Sands (Emory University School of Medicine, Atlanta, Ga.). Cells were grown in Dulbecco's Modified Eagle Medium (DMEM) with bicarbonate and supplemented with 10% fetal bovine serum (FBS), 25 mM HEPES buffer, penicillin G (100 U/mL), streptomycin (100 μg/mL) and hygromycin (500 μg/mL). For determining urea flux, cells were grown on 12-mm collagen-coated TRANSWELL inserts (0.4 μm pore size; Costar) as described (Fröhlich et al., Am J Physiol. in press; Fröhlich et al., 2004, supra). The TRANSWELL inserts were incubated in hygromycin-free medium for 1 hr in a 5% CO2 tissue culture incubator (37° C.), and then 2×10^5 cells/cm^2 were loaded onto each insert. Cells were used after culturing the cells for 4 days in hygromycin-free medium, at which time they formed tight monolayers (transepithelial resistance 500-600 Ω·cm^2).
UT-A1-facilitated urea flux in the basolateral-to-apical direction across unstimulated and forskolin-stimulated MDCK-UT-A1 cell layers was measured in response to a 15-mM urea gradient. Experiments were carried out in 12-well plates in which PBS, containing either DMSO vehicle or forskolin, with or without UT-B inhibitor, added to both the apical-facing (0.2 mL) and basal-facing (1 mL) surfaces of cells on the porous filters. Cultures were incubated in the absence of urea for 30 min at 37° C. Then, the basal-facing solution was replaced with PBS (containing same components) with 15 mM urea. Five μL samples of apical fluid were collected at specified times during incubation at 37° C., and urea concentration was determined using a commercial kit based on chromogenic urea complexation at 520-nm wavelength (Quantichrom™ Urea Assay Kit, BioAssay Systems, Hayward, Calif.). Forskolin (10 μM), with or without UT-B transport inhibitors, was added from 1000× DMSO stock solutions (0.2% final DMSO content). Inhibition of UT-A1-mediated transport was defined as % inhibition=100% (Aforsk−Atest)/(Aforsk−Aphlor). Aforsk, and Aphlor were averaged absorbance values (at 520 nm) for cultures treated with forskolin and forskolin+phloretin, respectively, and Atest were values from cultures treated with forskolin+test compound.

UT = settings: non-specific membrane intercalating agent; cited from earlier work
RBCs from wild-type mice = assay: Osmotic water permeability, RBCs from wild-type mice; type: cell-based, mouse
Description: FIGS. 8A-B illustrate UT-B-facilitated water transport by ‘chemical UT-B knock-out’. Osmotic water permeability was measured from the time course of RBC volume in response to a 250-mM inwardly directed sucrose gradient. FIG. 8A presents representative traces of mouse RBC water permeability performed at 10° C., with genotypes and conditions indicated. Inhibitors ureainh-201 and ureainh-302 were used at 25 μM. FIG. 8B presents osmotic water permeability coefficients (Pf) from experiments as illustrated in FIG. 8A (±SE, 3-7 curves per group of RBCs pooled from 4 mice per genotype). *, P<0.01 compared with no inhibitor; #, P<0.01 compared with wild-type (no inhibitor).
RBC urea and water permeabilities were assayed by stopped-flow light scattering using a Hi-Tech Sf-51 instrument (Wiltshire, UK). For measurement of urea permeability, dilutions of whole blood (human or mouse; see Example 1) in PBS (hematocrit: approximately 0.5%) were incubated with test compounds for 5 min and then subjected to a 250-mM inwardly directed gradient of urea. After an initial osmotic shrinking phase, the kinetics of increasing cell volume caused by urea influx were measured as the time-course of 90° scattered light intensity at 530 nm, with increasing cell volume resulting in reduced scattered light intensity. As a positive control, 0.7 mM phloretin was added to the RBC suspension prior to stopped-flow experiments. Measurements of water permeability were carried out similarly, with sucrose (cell-impermeant) used instead of urea to establish a 250-mM osmotic gradient. As a positive control, HgCl2 (0.3 mM) was added to the RBC suspension prior to stopped-flow measurements. Osmotic water permeability coefficients (Pf) were computed from light scattering data as described (van Hoek et al., J Biol Chem. 267:18267-69 (1992)).
This example describes chemical knock-out of UT-B by UT-B inhibitors in RBCs and the effect on UT-B-facilitated Water transport. […] Osmotic water permeability was measured by stopped-flow light scattering in RBCs from wild-type and AQP1-null mice as shown in FIG. 8A. […] AQP1-null RBCs had greater than 5-fold reduced Pf compared to wild-type RBCs.

[1] = Table 2, read-out: EC50 (μM), UT-B inhibitory potency
[2] = lysis assay, FIG. 5B, read-out: apparent EC50

Row | Compound | EC50 (UT-B; [1]) | further results
1 | Cc1ccc(S(=O)(=O)Nc2ccc3c(c2)OCCO3)cc1C [ureainh-212, N-(2,3-dihydrobenzo[b][1,4]dioxin-6-yl)-3,4-dimethylbenzenesulfonamide] | 10 µM | –
2 | COc1ccc(OC)c(NS(=O)(=O)c2ccc(Br)cc2)c1 [ureainh-202, 4-bromo-N-(2,5-dimethoxyphenyl) benzenesulfonamide] | 0.4 µM | –
3 | CCn1c(NCc2cc(Br)ccc2O)nc2ccccc21 [ureainh-404] | – | EC50 (UT-B; [2]): 0.4 µM; inhibition of rat UT-A1 (rat UT-A1): Neither ureainh-201 at 25 μM nor ureainh-404 at 25 μM significantly inhibited
4 | COc1cccc(S(=O)(=O)Nc2ccc3c(c2)OCCO3)c1 [ureainh-209, N-(2,3-dihydrobenzo [b][1,4]dioxin-6-yl)-3-Methoxybenzenesulfonamide] | 6 µM | –
5 | COc1ccc(OC)c(NS(=O)(=O)c2cccc(Br)c2)c1 [ureainh-203, 3-bromo-N-(2,5-dimethoxyphenyl) benzenesulfonamide] | 0.7 µM | –
6 | COc1cc(OC)cc(S(=O)(=O)Nc2cc(OC)ccc2OC)c1 [ureainh-201, N-(2,5-dimethoxyphenyl)-3,5-dimethoxybenzene sulfonamide] | – | EC50 (UT-B; [2]): 0.3 µM; inhibition of rat UT-A1 (rat UT-A1): Neither ureainh-201 at 25 μM nor ureainh-404 at 25 μM significantly inhibited
7 | NC(=O)c1ccc(S(=O)(=O)Nc2ccc3c(c2)OCCO3)cc1 [ureainh-207, 4-(N-(2,3-dihydrobenzo [b][1,4]dioxin-6-yl)sulfamoyl)benzamide] | 2 µM | –
8 | O=S(=O)(Nc1ccc2c(c1)OCCO2)c1ccc2ccccc2c1 [ureainh-213, N-(2,3-dihydrobenzo[b][1,4]dioxin-6-yl)naphthalene-2-sulfonamide] | 10 µM | –
9 | Cn1c(=O)oc2cc(NS(=O)(=O)c3cccc(C(F)(F)F)c3)ccc21 [ureainh-217, N-(3-methyl-2-oxo-2,3-dihydrobenzo[d]oxazol-6-yl)-3-(trifluoromethyl) Benzenesulfonamide] | 4 µM | –
10 | CC(=O)c1cccc(S(=O)(=O)Nc2ccc3c(c2)OCCO3)c1 [ureainh-210, 3-acetyl-N-(2,3-dihydrobenzo [b][1,4]dioxin-6-yl) Benzenesulfonamide] | 6 µM | –
11 | Cc1cc(C)cc(S(=O)(=O)Nc2ccc3c(c2)OCCO3)c1 [ureainh-208, N-(2,3-dihydrobenzo [b][1,4]dioxin-6-yl)-3,5-dimethylbenzenesulfonamide] | 4 µM | –
12 | O=C(CCc1ccc(O)cc1)c1c(O)cc(O)cc1O [phloretin, reference compound] | – | concentration exhibiting activity (UT): > 0.5 mM; reduction in Pf (RBCs from wild-type mice; 0.7 mM): small but significant reduction; effect on water transport (RBCs from wild-type mice; inhibitors 25 μM, phloretin 0.7 mM, 10° C.): little effect on water transport; UT-A1-facilitated urea transport (rat UT-A1; phloretin 0.7 mM, forskolin-stimulated): inhibited
13 | O=S(=O)(Nc1ccc2c(c1)OCCO2)c1cccc(Br)c1 [ureainh-211, 3-bromo-N-(2,3-dihydrobenzo[b][1,4]dioxin-6-y])benzenesulfonamide] | 8 µM | –
